In this experiment the test system is expression of d2EGFP in human colon cancer COLO 320DM cells. Kind of experiment: Level of expression of d2EGFP by cell sorter in DM clone treated with 5-aza (Example 9). Type of experiment: cell-based. Particulars: DM clone treated with 3 μM of 5-aza for 3 days, then Doxycycline 1 μg/ml for 2 days. An excerpt: An equimolar mixture of a plasmid (pSFVdhfr/d2EGFP) and pTet-ON plasmid (Clontech Laboratories Inc.) was simultaneously transfected into human colon cancer COLO 320DM cells. The plasmid (pSFVdhfr/d2EGFP) was a plasmid having (a) IR and MAR derived from human DHFR gene locus, (b) Blasticidin tolerance gene, and (c) d2EGFP gene that was under control of TRE-promoter (Tetracycline inducing promoter). Meanwhile, the pTet-ON plasmid was a plasmid having Tet-ON gene encoding the transcription activating factor (Tet-ON protein) of TRE-promoter. The cells were selected with 5 μg/ml of Blasticidin thereby obtaining a polyclonal population of transformed cells. […] In FIG. 20, the detected base sequence derived from the pSFVdhfr/d2EGFP plasmid is indicated by the arrow. […]
In each culture solution of the two clones, 3 μM of 5-aza was added and thereby the clones were treated with 5-aza for 3 days. […] After the culturing, the level of the expression of d2EGFP in each clone was analyzed by a cell sorter. […] This polyclonal population of transformed cells was subjected to the induction of expression of d2EGFP with Doxycycline and a level of the expression of d2EGFP therein was analyzed by using the cell sorter in the same way as described above. […] FIG. 21(a) illustrates the result of the fluorescence intensity measurements of HSR clone two days after the addition of Doxycycline. […]

Molecule `Nc1ncn([C@H]2C[C@H](O)[C@@H](CO)O2)c(=O)n1` [5-aza, 5-aza-2′-deoxycytidine] displayed an accumulated fluorescence intensity of 238113.
